Results published in ChEMBL document CHEMBL4732023, “Using NMR to identify binding regions for N and C-terminal Hsp90 inhibitors using Hsp90 domains” (RSC Med Chem, 2021).
≈ marks a conversion by molar mass, not a printed value. Calls of active or inactive are those of the source. The calls are words filed in the database; no cut-off is given here. Where a SMILES comes first, the peptide text is derived from it. [ ]: non-standard residue; d: D form. dAla(4-thiazolyl) = N[C@H](Cc1cscn1)C(=O)O; dDip = N[C@@H](C(=O)O)C(c1ccccc1)c1ccccc1; NMeV = CN[C@H](C(=O)O)C(C)C

Legend:
Heat shock protein HSP90 [1] = molecular target: T1, Heat shock protein HSP90 (Homo sapiens, UniProt P07900+P08238); assay: Binding affinity to HSP90 C-terminal domain (unknown origin) by biochemical assay; format: protein assay
Heat shock protein HSP90 [2] = molecular target: T1, Heat shock protein HSP90; assay: Binding affinity to recombinant His6-tagged HSP90 C-domain (unknown origin) (553 to 732 residues) expressed in Escherichia coli BL21 (DE3) (DNAY) cells assessed as chemical shift perturbation at protein to compound ratio of 1:1.6 by 15N-1H TROSY-HSQC NMR spectroscopy
Heat shock protein HSP90 [3] = molecular target: T1, Heat shock protein HSP90; assay: Binding affinity to recombinant His6-tagged HSP90 C-domain (unknown origin) (553 to 732 residues) expressed in Escherichia coli BL21 (DE3) (DNAY) cells assessed as dissociation constant by 15N-1H TROSY-HSQC NMR spectroscopy
[4] = Solubility of compound in water; format: physicochemical; conditions: buffer

| Kd (Heat shock protein HSP90 [1]) [µM] | Activity (Heat shock protein HSP90 [2]) | Kd (Heat shock protein HSP90 [3]) [µM] | Activity (Heat shock protein HSP90 [3]) | solubility [4] [µM] | SMILES |
| --- | --- | --- | --- | --- | --- |
| 500 |  |  |  |  | COc1cc([C@H]2Oc3cc([C@H]4Oc5cc(O)cc(O)c5C(=O)[C@@H]4O)ccc3O[C@@H]2CO)ccc1O [SILYBIN A] |
| 45 | Active | 19.8 |  |  | NCCCC[C@@H]1NC(=O)[C@H](Cc2ccccc2)NC(=O)[C@H](Cc2ccc(O)cc2)NC(=O)[C@H](CO)NC(=O)[C@H](CC(N)=O)NC1=O (cyclo(KNSYF)) |
|  |  |  | Active | 200 (≈ 143 µg/mL) | CC(C)C[C@@H]1NC(=O)[C@H](C(C)C)N(C)C(=O)[C@@H](CC(C)C)NC(=O)[C@@H](Cc2cscn2)NC(=O)[C@@H](C(c2ccccc2)c2ccccc2)NC1=O (cyclo(L[dDip][dAla(4-thiazolyl)][dL][NMeV])) |
